# Measured values as given in patent US7531360B2, “Method of dechlorination treatment of flowing water, in particular upstream of a biological pollution detector” (Societe des Eaux de Marseille, priority 2005, dated 2009).
# Entries after “also recorded” stand apart in the source; their conditions may differ.
# How the values were obtained:
# [1] = Maintenance of reducing power of stored ascorbic acid solution over time (iodometry, FIG. 1); conditions: for Reducing activity of degradation by-product: compared with initial ascorbic acid
# trout fingerlings [2] = experiment: Tests of known dechlorination agents for use with biological detector
# Source text: The inventors carried out a number of experiments to test the various known dechlorination agents mentioned above.
# trout fingerlings [3] = experiment: Flowing dechlorination tests in the presence of trout fingerlings; type: in vivo; conditions: continuous period of several days
# Method: The dechlorinated water flowing out of the mixer directly feeds the aquarium, which is equipped with two probes to measure dissolved oxygen, pH and temperature in real time. The aquarium is maintained under permanent aeration so that stress is not induced in the fish due to a lack of dissolved oxygen.
# These flowing dechlorination tests were then carried out in the presence of trout fingerlings, for a continuous period of several days.
# [4] = Effect of excess ascorbic acid on pH, dissolved oxygen and residual chlorine in artificially chlorinated distributed water; conditions: stoichiometric or slight excess of reducing agent
# Source text: In order to ensure effective dechlorination, it is advantageous to control the system using a chlorine analyzer (a metering pump controlled by a chlorine analyzer). However, to avoid this metering pump control, it is possible to work with a slight excess of ascorbic acid. […] Experiments were thus carried out in this area on artificially chlorinated distributed water to verify these effects.
# It should be noted that the pH still remains in a range favorable to the survival of trout fingerlings regardless of the initial pH of the distributed water.
# [5] = Flowing dechlorination test without trout fingerlings (metering pump, in-line mixer, FIG. 2)
# Fario trout fingerlings = experiment: Validation of treatment installation coupled with TruitoSEM biological detector
# trout fingerlings [6] = conditions: ascorbic acid 75 mg/l, 6 trout fingerlings, 15 days
# Source text: As for the TruitoSEM, the aquarium was maintained under constant aeration.
# trout fingerlings [7] = experiment: Toxicity of chlorine for trout fingerlings: aquarium with increasing concentrations of sodium hypochlorite; type: in vivo; conditions: maintained 8 hours
# Method: This toxicity of chlorine for trout fingerlings has also been shown by the inventors. Twelve trout fingerlings were maintained in an aquarium containing water chlorinated with increasing concentrations of sodium hypochlorite. Each chlorine concentration was maintained for a period of 8 hours. The aquarium was placed under permanent aeration using an air pump equipped with a porous diffuser. The following table presents the results observed during this experiment.
# The following table presents the results observed during this experiment. ([Cl2]=chlorine disinfectant expressed in equivalent Cl2.)
smiles,measurement,setting,value
O=C1O[C@H]([C@@H](O)CO)C(=O)C1=O [dehydroascorbic acid],Reducing activity of degradation by-product,[1],equivalent to that of the initial ascorbic acid
"O=C1O[C@H]([C@@H](O)CO)C([O-])=C1O.[Na+] [Sodium ascorbate, sodium ascorbate]",Stability of reagent,trout fingerlings [2],lack of stability
"O=S([O-])O.[Na+] [sodium bisulfite, sodium bisulfite (NaHSO3)]",Outcome for trout fingerlings,trout fingerlings [2]; various implementation conditions,death of the trout fingerlings
CCC(=O)C=O [ethylglyoxal],Reducing activity of degradation by-product,[1],lessened reducing activity
"O=C1O[C@H]([C@@H](O)CO)C(O)=C1O [ascorbic acid, L-ascorbic acid]",Physical signs and mobility of trout fingerlings,trout fingerlings [3],no abnormal physical signs and normal mobility
same,Residual chlorine concentration after treatment,[4],< 0.1 mg/L
same,Ascorbic acid flow rate for effective dechlorination,[5]; 20% solution stored 60 days away from light at ambient temperature (R=3),0.036 L/h
same,Ascorbic acid flow rate for effective dechlorination,"[5]; 20% solution, t=0, optimal setting (R=2.5)",0.030 L/h
same,Decrease of speed of reaction with chlorine,[5]; ascorbic acid 60 days old,16%
same,Dechlorination yield,"[5]; initial chlorine 4.5 mg/l equivalent Cl2, 20% ascorbic acid flow rate 0.030 l/h (R=2.5)",~100%
same,Mortality of biological indicators,"Fario trout fingerlings; 8 hours/day for twenty days, real operating conditions",did not generate any mortality
same,Elimination of chlorine in installation,"Fario trout fingerlings; in-flow 4.5 mg/l Cl2, water 160 l/h, 20% ascorbic acid 0.036 l/h, solution stored 0 to 60 days",complete neutralization
same,Behavior of trout fingerlings,trout fingerlings [6],did not show any significant change in the behavior
same,Reduction in reducing power over time,"[1]; 10% ascorbic acid solution, darkness, approx. 20° C., after 35 days",−10%
same,Loss of reducing activity,"[1]; ascorbic acid after 60 days, FIG. 1",5%
same,Effectiveness of the product (chlorine elimination) after storage,"[1]; at least 20% (200 g/l) solution, after 60 days of use",approximately 95%
OCl [sodium hypochlorite],Effects observed,trout fingerlings [7]; [Cl2] 0.25 mg/l,No effect.
same,Mortality % observed,"trout fingerlings [7]; [Cl2] 0.25 mg/l, 12 trout fingerlings",0%
same,Effects observed,trout fingerlings [7]; [Cl2] 0.70 mg/l,Reduction in mobility; also recorded: Accelerated ventilation
same,Mortality % observed,trout fingerlings [7]; [Cl2] 0.70 mg/l,10%
same,Effects observed,trout fingerlings [7]; [Cl2] 1.4 mg/l,Highly reduced mobility; also recorded: Loss of appetite; also recorded: Very high ventilation; also recorded: Reduction in the size of the iris
same,Mortality % observed,trout fingerlings [7]; [Cl2] 1.4 mg/l,60%
same,Effects observed,trout fingerlings [7]; [Cl2] 2.1 mg/l,Swimming on the side then on the back; also recorded: Death
same,Mortality % observed,trout fingerlings [7]; [Cl2] 2.1 mg/l,100%
